This is an account of results in the Kinase Knowledgebase extract (Sharma et al. 2016).

“And” between values parts separate entries of the source, which are not always exact repeats. Equal entries are not always repeated.

In this experiment the target is CDK2 (human) (UniProt P24941). The experiment can be described thus: Enzyme Assay.
What is called IC50 is the concentration at which inhibition is half-maximal. A higher IC50 goes with a need for much substance. With `C1=CCOCc2cc(ccc2OCCN2CCCC2)Nc2nccc(n2)-c2cncc(c2)COC1`, the IC50 is 1000 to 5000 nM.
The same measure for `CCN(CC)CCOc1ccc2cc1CN(C)CC=CCCOc1cccc(c1)-c1ccnc(n1)N2`: not above 1000 nM.
The same measure for `Cc1cnc2nc1-c1cccc(c1)OCCC=CCN(C)Cc1cccc(c1)N2`: not above 1000 nM; for `O=C1CCC=CCOCc2cccc(c2)Nc2nccc(n2)-c2cccc(c2)N1`: 1000 to 5000 nM; for `CN1CC=CCCOc2cc(F)cc(c2)-c2ccnc(n2)Nc2ccc(OCCN3CCCC3)c(c2)C1`: not above 1000 nM.
For `c1cc2cc(c1)-c1ccnc(n1)Nc1ccc(OCCN3CCCC3)c(c1)COCC1CC1COC2` (stereo unspecified), the IC50 fell in the range of 1000 to 5000 nM.
As to `C1=CCOCc2cc(ccc2OCCN2CCCC2)Nc2nccc(n2)-c2cc(co2)COC1`, the half-maximal inhibitory concentration (IC50) was more than 5000 nM.
`CCN(CC)CCOc1ccc2cc1COCC=CCOCc1cccc(c1)-c1ccnc(n1)N2` displayed an IC50 of 1000 to 5000 nM.
Regarding `C1=CCNCc2cccc(c2)Nc2nccc(n2)-c2cccc(c2)OCC1`, the IC50 is not above 1000 nM.
With `CCN(CC)CCOc1ccc2cc1COCC=CCCOc1cc(ccc1OC)-c1ccnc(n1)N2` the figure was more than 5000 nM; with `C1=CCN(C2CC2)Cc2cccc(c2)Nc2nccc(n2)-c2cccc(c2)OCC1`, not above 1000 nM.
Take `CN1CC=CCCOc2cccc(c2)-c2ccnc(n2)Nc2cc(ccn2)C1`: the IC50 is 1000 to 5000 nM.
In turn, `COc1cc2cc(c1OCCN1CCCC1)COCC=CCOCc1cccc(c1)-c1ccnc(n1)N2` had an IC50 of 1000 to 5000 nM.
For the compound `CN1CC=CCCOc2cccc(c2)-c2ccnc(n2)Nc2ccc(OCCN3CCOCC3)c(c2)C1`, the IC50 was not above 1000 nM.
`CN1Cc2cccc(c2)Nc2nccc(n2)-c2cccc(c2)OCCC2CC2C1` (stereo unspecified) displayed an IC50 not above 1000 nM.
With `C1=CCOCc2cc(ccc2N2CCOCC2)Nc2nccc(n2)-c2cccc(c2)COC1`, the IC50 is more than 5000 nM.
Compound `CN1CC=CCCOc2cccc(c2)-c2ccnc(n2)Nc2ccc(N3CCOCC3)c(c2)C1` showed an IC50 not above 1000 nM.
Take `CN1CC=CCCOc2cccc(c2)-c2ccnc(n2)Nc2ccc(OCCN3CCCC3)c(c2)C1`: the IC50 is not above 1000 nM.
On to `CN1CC=CCOCC2=CC=C(O2)c2ccnc(n2)Nc2cccc(c2)C1`, for which the IC50 was not above 1000 nM.
As to `O=C1NCC=CCOCc2cccc(c2)Nc2nccc(n2)-c2cccc1c2`, the IC50 was more than 5000 nM.
`CN1CC=CCCOc2cccc(c2)-c2ccnc(n2)Nc2ccc(OCCn3cncn3)c(c2)C1` displayed an IC50 not above 1000 nM.
`C1=CCOCc2cc(ccc2OCCN2CCCC2)Nc2nccc(n2)C2=CC=C(COC1)O2`: the IC50 was more than 5000 nM.
The same measure for `Fc1ccc2cc1COCC=CCOCc1cc(ccc1OCCN1CCCC1)Nc1nccc-2n1`: 1000 to 5000 nM.
On to `C1=CCOCc2cc(ccc2OCCN2CCCC2)Nc2nccc(n2)-c2csc(c2)COC1`, for which the IC50 was more than 5000 nM.
`C1=CCOCc2cc(ccc2OCCN2CCCC2)Nc2nccc(n2)C2=CC=C(COC1)S2` gave an IC50 of more than 5000 nM.
Compound `CCN(CC)CCOc1ccc2cc1COCC=CCCOc1cccc(c1)-c1nc(ncc1C)N2` gave an IC50 of more than 5000 nM.
In turn, `CN1CC=CCCOc2cc(ccc2N)-c2ccnc(n2)Nc2cccc(c2)C1` registered an IC50 not above 1000 nM.
The compound `C1=CCN(C2CC2)Cc2cc(ccc2OCCN2CCOCC2)Nc2nccc(n2)-c2cccc(c2)OCC1` returned an IC50 not above 1000 nM.
`CN1CCN(c2ccc3cc2COCC=CCOCc2cccc(c2)-c2ccnc(n2)N3)CC1` came in with an IC50 of more than 5000 nM.
In the case of `CCS(=O)(=O)CCOc1ccc2cc1CN(C)CC=CCCOc1cccc(c1)-c1ccnc(n1)N2`, the IC50 is not above 1000 nM.
The same measure for `C1=CCOCc2cc(ccc2OCCN2CCCC2)Nc2nccc(n2)-c2coc(c2)COC1`: more than 5000 nM; for `COc1ccc2cc1COCC=CCOCc1cc(ccc1OCCN1CCCC1)Nc1nccc-2n1`: more than 5000 nM; for `CN1CC=CCC(=O)Nc2cccc(c2)-c2ccnc(n2)Nc2cccc(c2)C1`: 1000 to 5000 nM.
The same measure for `C1=CCOCc2cc(ccc2OCCN2CCCC2)Nc2nccc(n2)-c2cccc(c2)COC1`: 1000 to 5000 nM; for `CCN(CC)CCOc1ccc2cc1COCC=CCCOc1cccc(c1)-c1ccnc(n1)N2`: more than 5000 nM; for `COc1ccc2cc1COCC=CCOc1cccc(c1)-c1ccnc(n1)N2`: ≤ 1000 nM and > 5000 nM.
Compound `Fc1cc2cc(c1)-c1ccnc(n1)Nc1ccc(OCCN3CCCC3)c(c1)COCC=CCCO2` gave a half-maximal inhibitory concentration (IC50) of 1000 to 5000 nM.
For the compound `CN1CC=CCCOc2cc(F)cc(c2)-c2ccnc(n2)Nc2cccc(c2)C1`, the IC50 was not above 1000 nM.
`CN1CC=CCCOc2cccc(c2)-c2ccnc(n2)Nc2ccc(OCCN3CCCCC3)c(c2)C1` came in with an IC50 not above 1000 nM.
Compound `CN1CC=CCOCC2=CC=C(S2)c2ccnc(n2)Nc2ccc(OCCN3CCCC3)c(c2)C1` registered an IC50 not above 1000 nM.
The compound `CN1CC=CCCOc2cccc(c2)-c2ccnc(n2)Nc2cc(N)cc(c2)C1` had a half-maximal inhibitory concentration (IC50) not above 1000 nM.
